Laboratory results as given in ChEMBL document CHEMBL3046109, “A Method for Monitoring the Sensitivity of Botrytis cinerea to Mepanipyrim” (2004).

Tests used:
Type in all cases: functional
Botrytis cinerea [1] = experiment: Fungicidal activity against anilinopyrimidine-resistant Botryotinia fuckeliana CH15.93 infected in strawberry fruit assessed as inhibition of mycelial growth at 100 mg/l treated 2-3 hr before challenge measured after 5 days; conditions: read-out: GI
Botrytis cinerea [2] = experiment: Fungicidal activity against anilinopyrimidine-resistant Botryotinia fuckeliana CH12.92 isolated from grape plant assessed as inhibition of mycelial growth at 100 mg/l after 4 days; conditions: CH12.92, 96 h, read-out: GI
Botrytis cinerea [3] = experiment: Fungicidal activity against anilinopyrimidine-sensitive Botryotinia fuckeliana KU-01 isolated from grape plant assessed as inhibition of mycelial growth at 100 mg/l after 4 days; conditions: KU-01, 96 h, read-out: GI
Botrytis cinerea [4] = experiment: Fungicidal activity against anilinopyrimidine-sensitive Botryotinia fuckeliana KU-01 isolated from grape plant assessed as inhibition of mycelial growth at 1 mg/l after 4 days; conditions: KU-01, 96 h, read-out: GI
Botrytis cinerea [5] = experiment: Fungicidal activity against anilinopyrimidine-resistant Botryotinia fuckeliana CH164.94 infected in strawberry fruit assessed as inhibition of mycelial growth at 100 mg/l treated 2-3 hr before challenge measured after 5 days; conditions: read-out: GI
Botrytis cinerea [6] = experiment: Fungicidal activity against anilinopyrimidine-resistant Botryotinia fuckeliana CH164.94 isolated from grape plant assessed as inhibition of mycelial growth at 10 mg/l after 4 days; conditions: CH164.94, 96 h, read-out: GI
Botrytis cinerea [7] = experiment: Fungicidal activity against anilinopyrimidine-sensitive Botryotinia fuckeliana KU-01 isolated from grape plant assessed as inhibition of mycelial growth at 10 mg/l after 4 days; conditions: KU-01, 96 h, read-out: GI
Botrytis cinerea [8] = experiment: Fungicidal activity against anilinopyrimidine-resistant Botryotinia fuckeliana CH12.92 infected in strawberry fruit assessed as inhibition of mycelial growth at 100 mg/l treated 2-3 hr before challenge measured after 5 days; conditions: read-out: GI
Botrytis cinerea [9] = experiment: Fungicidal activity against anilinopyrimidine-sensitive Botryotinia fuckeliana KU-59 infected in strawberry fruit assessed as inhibition of mycelial growth at 100 mg/l treated 2-3 hr before challenge measured after 5 days; conditions: read-out: GI
Botrytis cinerea [10] = experiment: Fungicidal activity against anilinopyrimidine-resistant Botryotinia fuckeliana CH12.92 infected in strawberry fruit assessed as inhibition of mycelial growth at 50 mg/l treated 2-3 hr before challenge measured after 5 days; conditions: read-out: GI
Botrytis cinerea [11] = experiment: Fungicidal activity against anilinopyrimidine-resistant Botryotinia fuckeliana CH12.92 isolated from grape plant assessed as inhibition of mycelial growth at 1 mg/l after 4 days; conditions: CH12.92, 96 h, read-out: GI
Botrytis cinerea [12] = experiment: Fungicidal activity against anilinopyrimidine-resistant Botryotinia fuckeliana CH164.94 isolated from grape plant assessed as inhibition of mycelial growth at 3 mg/l after 4 days; conditions: CH164.94, 96 h, read-out: GI
Botrytis cinerea [13] = experiment: Fungicidal activity against anilinopyrimidine-resistant Botryotinia fuckeliana CH15.93 isolated from grape plant assessed as inhibition of mycelial growth at 30 mg/l after 4 days; conditions: CH15.93, 96 h, read-out: GI
Botrytis cinerea [14] = experiment: Fungicidal activity against anilinopyrimidine-resistant Botryotinia fuckeliana CH15.93 infected in strawberry fruit assessed as inhibition of mycelial growth at 50 mg/l treated 2-3 hr before challenge measured after 5 days; conditions: read-out: GI
Botrytis cinerea [15] = experiment: Fungicidal activity against anilinopyrimidine-resistant Botryotinia fuckeliana CH164.94 infected in strawberry fruit assessed as inhibition of mycelial growth at 50 mg/l treated 2-3 hr before challenge measured after 5 days; conditions: read-out: GI
Botrytis cinerea [16] = experiment: Fungicidal activity against anilinopyrimidine-resistant Botryotinia fuckeliana CH12.92 infected in strawberry fruit assessed as inhibition of mycelial growth at 200 mg/l treated 2-3 hr before challenge measured after 5 days; conditions: read-out: GI
Botrytis cinerea [17] = experiment: Fungicidal activity against anilinopyrimidine-resistant Botryotinia fuckeliana CH15.93 isolated from grape plant assessed as inhibition of mycelial growth at 100 mg/l after 4 days; conditions: CH15.93, 96 h, read-out: GI
Botrytis cinerea [18] = experiment: Fungicidal activity against anilinopyrimidine-sensitive Botryotinia fuckeliana KU-59 infected in strawberry fruit assessed as inhibition of mycelial growth at 200 mg/l treated 2-3 hr before challenge measured after 5 days; conditions: read-out: GI
Botrytis cinerea [19] = experiment: Fungicidal activity against anilinopyrimidine-sensitive Botryotinia fuckeliana KU-59 isolated from grape plant assessed as inhibition of mycelial growth at 0.3 mg/l after 4 days; conditions: KU-59, 96 h, read-out: GI
Botrytis cinerea [20] = experiment: Fungicidal activity against anilinopyrimidine-sensitive Botryotinia fuckeliana KU-59 infected in strawberry fruit assessed as inhibition of mycelial growth at 50 mg/l treated 2-3 hr before challenge measured after 5 days; conditions: read-out: GI
Botrytis cinerea [21] = experiment: Fungicidal activity against anilinopyrimidine-resistant Botryotinia fuckeliana CH164.94 isolated from grape plant assessed as inhibition of mycelial growth at 100 mg/l after 4 days; conditions: CH164.94, 96 h, read-out: GI
Botrytis cinerea [22] = experiment: Fungicidal activity against anilinopyrimidine-resistant Botryotinia fuckeliana CH12.92 isolated from grape plant assessed as inhibition of mycelial growth at 10 mg/l after 4 days; conditions: CH12.92, 96 h, read-out: GI
Botrytis cinerea [23] = experiment: Fungicidal activity against anilinopyrimidine-resistant Botryotinia fuckeliana CH12.92 isolated from grape plant assessed as inhibition of mycelial growth at 0.3 mg/l after 4 days; conditions: CH12.92, 96 h, read-out: GI
Botrytis cinerea [24] = experiment: Fungicidal activity against anilinopyrimidine-resistant Botryotinia fuckeliana CH164.94 isolated from grape plant assessed as inhibition of mycelial growth at 0.1 mg/l after 4 days; conditions: CH164.94, 96 h, read-out: GI
Botrytis cinerea [25] = experiment: Fungicidal activity against anilinopyrimidine-resistant Botryotinia fuckeliana CH12.92 isolated from grape plant assessed as inhibition of mycelial growth at 30 mg/l after 4 days; conditions: CH12.92, 96 h, read-out: GI

**Q.** What does the source list for CC#Cc1cc(C)nc(Nc2ccccc2)n1 [MEPANIPYRIM]?
**A.** inhibition of growth at 100 µg/mL (Botrytis cinerea [1]): 0%; inhibition of growth at 100 µg/mL (Botrytis cinerea [2]): 70.4%; inhibition of growth at 100 µg/mL (Botrytis cinerea [3]): 100%; inhibition of growth at 1 µg/mL (Botrytis cinerea [4]): 100%; inhibition of growth at 100 µg/mL (Botrytis cinerea [5]): 0%; inhibition of growth at 10 µg/mL (Botrytis cinerea [6]): 67.1%; inhibition of growth at 10 µg/mL (Botrytis cinerea [7]): 100%; inhibition of growth at 100 µg/mL (Botrytis cinerea [8]): 0%; inhibition of growth at 100 µg/mL (Botrytis cinerea [9]): 100%; inhibition of growth at 50 µg/mL (Botrytis cinerea [10]): 0%; inhibition of growth at 1 µg/mL (Botrytis cinerea [11]): 42.6%; inhibition of growth at 3 µg/mL (Botrytis cinerea [12]): 57.9%; inhibition of growth at 30 µg/mL (Botrytis cinerea [13]): 74.1%; inhibition of growth at 50 µg/mL (Botrytis cinerea [14]): 0%; inhibition of growth at 50 µg/mL (Botrytis cinerea [15]): 0%; inhibition of growth at 200 µg/mL (Botrytis cinerea [16]): 0%; inhibition of growth at 100 µg/mL (Botrytis cinerea [17]): 75.4%; inhibition of growth at 200 µg/mL (Botrytis cinerea [18]): 100%; inhibition of growth at 0.3 µg/mL (Botrytis cinerea [19]): 100%; inhibition of growth at 50 µg/mL (Botrytis cinerea [20]): 100%; inhibition of growth at 100 µg/mL (Botrytis cinerea [21]): 70.8%; inhibition of growth at 10 µg/mL (Botrytis cinerea [22]): 65.7%; inhibition of growth at 0.3 µg/mL (Botrytis cinerea [23]): 19.8%; inhibition of growth at 0.1 µg/mL (Botrytis cinerea [24]): 0%; inhibition of growth at 30 µg/mL (Botrytis cinerea [25]): 63.2%
